# Measured values published in patent US11006626B2, “Compounds for protection of cells” (Sulfateq B.V., priority 2012, dated 2021).
# Columns and labels:
# [1] = tested on: PRP platelets; assay: PRP platelets stored with Sul 136, aggregation after stimulation with ADP; format: cell-based; set-up: key to aggregation of the platelets after stimulation with ADP: +means that the cells show aggregation and can thus be activated upon stimulation; −means no aggregation upon stimulation
# Procedure: (§1) […] • The color and coagulation properties were visually analysed. • The thrombocyte cells that survived were counted and it was evaluated whether the thrombocytes were aggregated. • It was evaluated if the thrombocytes still were able to function after stimulation by the addition of ADP or under influence of collagen in a 96 well plate. • The adhesion was evaluated, meaning the ability of the platelets to bind collagen in a 6 well plate preincubated with collagen. • Via an ELISA assay, it was evaluated whether thromboxane was secreted from the platelets. Thromboxane facilitates aggregation and is produced by activated blood platelets.
# (+means that the cells show aggregation and can thus be activated upon stimulation, −means no aggregation upon stimulation)
# [2] = tested on: PRP platelets; assay: PRP platelets stored with Sul 136, aggregation after stimulation with collagen; format: cell-based; settings: 10 mM
# Procedure: as §1
# (+means that the cells show aggregation, ++means strong aggregation, these platelets can thus be activated upon stimulation, −means no aggregation upon stimulation)
structure (smiles),measurement,setting,value
"Cc1c(C)c2c(c(C)c1O)CCC(C)(C(=O)N1CCN(CC(=O)O)CC1)O2 (racemic) [SUL - 136, 2-(4-(6-hydroxy-2,5,7,8-tetramethylchroman-2-carbonyl)piperazin-1-yl)acetic acid]",activity after stimulation with ADP,[1]; 10 mM,still showed activity
same,aggregation of the platelets after stimulation with ADP,"[1]; 10 min 0.001 mM, 0 h",+
same,aggregation of the platelets after stimulation with ADP,"[1]; 10 min 0.001 mM, 24 h",−
same,aggregation of the platelets after stimulation with ADP,"[1]; 10 min 0.001 mM, 48 h",−
same,aggregation of the platelets after stimulation with ADP,"[1]; 10 min 0.001 mM, 72 h",−
same,aggregation of the platelets after stimulation with ADP,"[1]; 10 min 0.001 mM, 216 h",−
same,aggregation of the platelets after stimulation with ADP,"[1]; 10 min 0.01 mM, 0 h",+
same,aggregation of the platelets after stimulation with ADP,"[1]; 10 min 0.01 mM, 24 h",−
same,aggregation of the platelets after stimulation with ADP,"[1]; 10 min 0.01 mM, 48 h",−
same,aggregation of the platelets after stimulation with ADP,"[1]; 10 min 0.01 mM, 72 h",−
same,aggregation of the platelets after stimulation with ADP,"[1]; 10 min 0.01 mM, 216 h",−
same,aggregation of the platelets after stimulation with ADP,"[1]; 10 min 0.1 mM, 0 h",+
same,aggregation of the platelets after stimulation with ADP,"[1]; 10 min 0.1 mM, 24 h",−
same,aggregation of the platelets after stimulation with ADP,"[1]; 10 min 0.1 mM, 48 h",−
same,aggregation of the platelets after stimulation with ADP,"[1]; 10 min 0.1 mM, 72 h",−
same,aggregation of the platelets after stimulation with ADP,"[1]; 10 min 0.1 mM, 216 h",−
same,aggregation of the platelets after stimulation with ADP,"[1]; 10 min 1 mM, 0 h",+
same,aggregation of the platelets after stimulation with ADP,"[1]; 10 min 1 mM, 24 h",−
same,aggregation of the platelets after stimulation with ADP,"[1]; 10 min 1 mM, 48 h",−
same,aggregation of the platelets after stimulation with ADP,"[1]; 10 min 1 mM, 72 h",−
same,aggregation of the platelets after stimulation with ADP,"[1]; 10 min 1 mM, 216 h",−
same,aggregation of the platelets after stimulation with ADP,"[1]; 10 min 10 mM, 0 h",+
same,aggregation of the platelets after stimulation with ADP,"[1]; 10 min 10 mM, 24 h",+
same,aggregation of the platelets after stimulation with ADP,"[1]; 10 min 10 mM, 48 h",+
same,aggregation of the platelets after stimulation with ADP,"[1]; 10 min 10 mM, 72 h",+
same,aggregation of the platelets after stimulation with ADP,"[1]; 10 min 10 mM, 216 h",+
same,aggregation of the platelets after stimulation with ADP,"[1]; 60 min 0.001 mM, 0 h",+
same,aggregation of the platelets after stimulation with ADP,"[1]; 60 min 0.001 mM, 24 h",−
same,aggregation of the platelets after stimulation with ADP,"[1]; 60 min 0.001 mM, 48 h",−
same,aggregation of the platelets after stimulation with ADP,"[1]; 60 min 0.001 mM, 72 h",−
same,aggregation of the platelets after stimulation with ADP,"[1]; 60 min 0.001 mM, 216 h",−
same,aggregation of the platelets after stimulation with ADP,"[1]; 60 min 0.01 mM, 0 h",+
same,aggregation of the platelets after stimulation with ADP,"[1]; 60 min 0.01 mM, 24 h",−
same,aggregation of the platelets after stimulation with ADP,"[1]; 60 min 0.01 mM, 48 h",−
same,aggregation of the platelets after stimulation with ADP,"[1]; 60 min 0.01 mM, 72 h",−
same,aggregation of the platelets after stimulation with ADP,"[1]; 60 min 0.01 mM, 216 h",−
same,aggregation of the platelets after stimulation with ADP,"[1]; 60 min 0.1 mM, 0 h",+
same,aggregation of the platelets after stimulation with ADP,"[1]; 60 min 0.1 mM, 24 h",−
same,aggregation of the platelets after stimulation with ADP,"[1]; 60 min 0.1 mM, 48 h",−
same,aggregation of the platelets after stimulation with ADP,"[1]; 60 min 0.1 mM, 72 h",−
same,aggregation of the platelets after stimulation with ADP,"[1]; 60 min 0.1 mM, 216 h",−
same,aggregation of the platelets after stimulation with ADP,"[1]; 60 min 1 mM, 0 h",+
same,aggregation of the platelets after stimulation with ADP,"[1]; 60 min 1 mM, 24 h",−
same,aggregation of the platelets after stimulation with ADP,"[1]; 60 min 1 mM, 48 h",−
same,aggregation of the platelets after stimulation with ADP,"[1]; 60 min 1 mM, 72 h",−
same,aggregation of the platelets after stimulation with ADP,"[1]; 60 min 1 mM, 216 h",−
same,aggregation of the platelets after stimulation with ADP,"[1]; 60 min 10 mM, 0 h",+
same,aggregation of the platelets after stimulation with ADP,"[1]; 60 min 10 mM, 24 h",+
same,aggregation of the platelets after stimulation with ADP,"[1]; 60 min 10 mM, 48 h",+
same,aggregation of the platelets after stimulation with ADP,"[1]; 60 min 10 mM, 72 h",+
same,aggregation of the platelets after stimulation with ADP,"[1]; 60 min 10 mM, 216 h",−
same,activity after stimulation with collagen,[2],showed still activity
